Values after ≈ are worked out from the molar mass of the structure shown.
Conditions: buffer; pH 7.4; 6.0 h; 150.0 µM

Compound | solubility kinetic
Cc1ccccc1C(=O)N1CCc2cc(-c3nc(NC(=O)CC4CCCCC4)sc3C)ccc21 | < 1 µg/mL
COCCCNC(=O)c1cc2cc(S(=O)(=O)N(C)C)ccc2n1C | 42.6 µg/mL (≈ 120 µM)
Cc1ccc(S(=O)(=O)Nc2cccc(C(=O)Nc3nc(-c4ccccc4)cs3)c2)cc1 | < 1 µg/mL
Cc1noc(C)c1CN1CCNc2cc(Nc3ccccc3)ncc2C1 | > 77 µg/mL
COc1ccc(OC)c(Nc2c3c(nc4ccccc24)CCC3)c1 | > 47 µg/mL
O=C(O)c1cnc(-c2ccc(F)cc2)nc1-c1ccncc1 | > 29 µg/mL
CCOc1ccccc1C(=O)Nc1cccnc1C(=O)Nc1cccc(S(=O)(=O)C(F)(F)F)c1 | < 1 µg/mL
Cc1nn(CCc2nc(-c3ccc(OC(F)F)cc3)cs2)c2[nH]c(=O)cc(C(F)(F)F)c12 | < 1 µg/mL
COc1ccc(NC(C)=O)cc1S(=O)(=O)Nc1ccc(Br)cc1 | 32.7 µg/mL (≈ 81.9 µM)
c1ccc(Nc2cc3c(cn2)CN(Cc2ccsc2)CCN3)cc1 | > 75 µg/mL
COc1ccc(-n2nc(C3CCCN(C(=O)c4ccccc4)C3)[nH]c2=O)cc1 (configuration not stated) | > 56 µg/mL
Cc1cc(NS(=O)(=O)c2ccc(NCCc3ccc(Cl)c(Cl)c3)cc2)no1 | 11.4 µg/mL (≈ 26.9 µM)
COc1ccc(C2CC(=O)Nc3nc(N)sc32)cc1OC (configuration not stated) | 30.5 µg/mL (≈ 99.8 µM)
O=c1ncn2nc(Sc3ccc(F)cc3F)ccc2c1-c1c(Cl)cccc1Cl | > 100 µg/mL
COc1cc(-c2cc3c(nc2-c2ccccc2)nc(C(=O)NC2CCN(C)CC2)n3C)ccn1 | > 67 µg/mL
Fc1ccc(Nc2cc(-c3ccccc3)nc(-c3ccncc3)n2)cc1F | < 1 µg/mL
c1ccc(-c2nc(N3CCCCCC3)c3ccccc3n2)nc1 | > 45 µg/mL
CCOC(=O)c1nnc(N[S+](=O)([O-])c2ccc(NC(=O)Cc3ccc(Cl)c(Cl)c3)cc2)s1 | > 76 µg/mL
CC(=O)c1c(C)[nH]c(C(=O)N(C)C)c1C | > 31 µg/mL
O=C(Nc1ccc([N+](=O)[O-])cc1Cl)c1cc(Cl)ccc1O | 1.14 µg/mL (≈ 3.47 µM)
COc1ccc(O)c(CNc2ccc(S(=O)(=O)Nc3nccs3)cc2)c1 | > 58 µg/mL
O=C1C(c2ccc(C(F)(F)F)cc2)=C(Nc2ccc(Cl)cc2)c2ccccc21 | < 1 µg/mL
Cc1ccc(NS(=O)(=O)c2c(C)[nH]c(C)c2C(=O)N2CCCC2)cc1Cl | 48 µg/mL (≈ 121 µM)
Cc1nn2c(c1-c1ccccc1-c1ccccc1)N(Cc1ccc(O)cc1)CCC2 | < 1 µg/mL

Compound | solubility kinetic
O=S(=O)(Nc1nc2n(n1)C(c1ccccc1)C=C(c1ccc(Cl)cc1)N2)c1ccccc1 (configuration not stated) | 1.09 µg/mL (≈ 2.36 µM)
COc1ccc(CN2CCNc3cc(Nc4ccccc4)ncc3C2)cc1O | > 83 µg/mL
Cc1ccc(NS(=O)(=O)c2ccc3[nH]c4c(c3c2)CCCCCC4)cc1 | < 1 µg/mL
O=C(Nc1ccc(-c2nc3cc(NC(=O)c4ccccc4Cl)ccc3o2)cc1)c1ccccc1Cl | < 1 µg/mL
COc1cc(-c2c(C#N)c(N)nc3c2c(C)nn3-c2ccc(F)cc2)ccc1O | < 1 µg/mL
O=C(NCCO)c1cccc(-c2cc(Nc3ccc(OC(F)(F)F)cc3)ncn2)c1 | 8.93 µg/mL (≈ 21.3 µM)
CCc1[nH]c2ccc(CNC(=O)Cc3cnc4c(C)cccn34)cc2c1C | 17.3 µg/mL (≈ 47.9 µM)
COc1cc2c(cc1NC(=O)COc1ccc(Cl)cc1)oc1ccccc12 | < 1 µg/mL
Cc1cc(S(=O)(=O)Nc2cnccc2C(=O)Nc2nc(-c3ccccc3)cs2)c(C)o1 | > 67 µg/mL
O=C1Nc2ccc(I)cc2/C1=C/c1cc(Br)c(O)c(Br)c1 | < 1 µg/mL
Cc1ccc(S(=O)(=O)Nc2cc(Cl)cc(C(=O)Nc3nc(-c4ccccc4)cs3)c2)cc1 | < 1 µg/mL
Fc1cc(Nc2nc(-c3ccncc3)nc3ccccc23)ccc1-c1cccc(OC(F)F)c1 | < 1 µg/mL
Nc1c(-c2ccccc2)cnc2c(-c3ccccc3)cnn12 | < 1 µg/mL
COC(=O)c1ccc2nc(NC3=NC(c4[nH]ncc4Cl)C4=C(CCCC4=O)N3)oc2c1 (configuration not stated) | 1.62 µg/mL (≈ 3.69 µM)
Cc1ccc(S(=O)(=O)NCCC(=O)Nc2nc(-c3ccccc3)cs2)cc1 | < 1 µg/mL
O=C(c1ccc(-c2ncc3cnc(-c4ccccc4)cn23)cc1)N1CCS(=O)(=O)CC1 | 65.1 µg/mL (≈ 150 µM)
CCc1ccc(NC(=O)[C@H](Cc2c[nH]c3ccccc23)NC(=O)[C@@H]2Cc3ccccc3CN2)cc1 | 3.49 µg/mL (≈ 7.48 µM)
Cn1nnnc1SCCCNCc1cccc(OCc2ccccc2Cl)c1 | > 60 µg/mL
COc1ccc(-n2cnc3cc(C(=O)N4CCCCC4)ccc32)cc1 | > 50 µg/mL
Cc1ccc(S(=O)(=O)Nc2ccc(C(=O)Nc3nc(-c4ccccc4)cs3)c(Cl)c2)cc1 | < 1 µg/mL
c1ccc2c(Nc3ccn[nH]3)nc(-c3ccncc3)nc2c1 | < 1 µg/mL
Nc1ncccc1-c1nc2ccc(-c3ccccc3)nc2n1-c1ccc(C2(N)CCC2)cc1 | > 64 µg/mL
Cc1cccc(-n2ncc3c2CCCC3NC(=O)c2c(F)ccc(F)c2F)c1C (configuration not stated) | 7.25 µg/mL (≈ 18.1 µM)
COc1cc2ncnc(Oc3cccc(NC(=O)Nc4cc(C(C)(C)C(F)(F)F)on4)c3)c2cc1OC | 8.62 µg/mL (≈ 16.7 µM)

Compound | solubility kinetic
O=c1cc(-c2ccc(O)c(O)c2)oc2cc(O)cc(O)c12 | > 100 µg/mL
Cc1c(-c2cccc3c(CCCOc4cccc5ccccc45)c(C(=O)O)n(Cc4cccnc4)c23)c(COc2ccc(N3CCN([S+](=O)([O-])N(C)C)CC3)cc2)nn1C | < 1 µg/mL
O=C(CNC12CC3CC(CC(C3)C1)C2)c1ccc(Cl)cc1 | 34.6 µg/mL (≈ 114 µM)
COc1cccc(CNc2ccc(S(=O)(=O)Nc3cccc4ccccc34)cc2)c1O | < 1 µg/mL
OC(CCN1CCCCC1)c1ccc(-c2ccccc2)cc1 (configuration not stated) | > 44 µg/mL
C[C@]12N[C@H](Cc3ccccc31)c1ccccc12 | > 33 µg/mL
COc1ccnc(NC(=S)N2CCN(c3ncc(C(F)(F)F)cc3Cl)CC2)c1 | 1.24 µg/mL (≈ 2.86 µM)
O=C(c1ccc2ncccc2c1)N1CCc2c(nc3cc[nH]n3c2=O)C1 | 11.2 µg/mL (≈ 32.3 µM)
Cc1ccc(OCCn2c(CCNC(=O)C3CCCCC3)nc3ccccc32)cc1 | < 1 µg/mL
O=C(NCc1cccc(C(F)(F)F)c1)c1ccc(CN2CCCCC2)cc1 | 46.6 µg/mL (≈ 124 µM)
O=C(c1ccccc1)N1CCN(c2nc(-c3ccc(Br)cc3)cs2)CC1 | < 1 µg/mL
Cc1cccc(N2CCN(c3nc4ccccc4c4nnc(C)n34)CC2)c1C | < 1 µg/mL
Cc1ccc2nc(NC3=NC(c4[nH]ncc4Cl)C4=C(CCCC4=O)N3)oc2c1 (configuration not stated) | < 1 µg/mL
CC(C)c1ccc(Nc2c(-c3ccccn3)nc3ccccn23)cc1 | < 1 µg/mL
O=S(=O)(Nc1nccs1)c1ccc(NCc2cccc(Br)c2O)cc1 | 36.3 µg/mL (≈ 82.5 µM)
O=C(Nc1cccnc1)c1cccs1 | > 30 µg/mL
CCN(CCCOc1ccc2c(Nc3cc(CC(=O)Nc4cccc(F)c4)[nH]n3)ncnc2c1)CCOP(=O)(O)O | > 87 µg/mL
CCOC(=O)N1CCN(Cc2nc3cc(NC(=O)CC(C)C)ccc3n2C(C)C)CC1 | > 63 µg/mL
COc1ccccc1Nc1cnc2ccc(-c3ccc(OC)c(OC)c3)nn12 | < 1 µg/mL
NC(=O)C1CCN(c2ncnc(-c3ccc4c(c3)OCCCO4)n2)CC1 | > 52 µg/mL
C1CCc2nc3c(nc2C1)CCCC3 | > 28 µg/mL
Cc1ccc(NC(=O)C(Cc2ccccc2)NS(=O)(=O)c2cccs2)cc1Cl (configuration not stated) | < 1 µg/mL
Cc1ccc(-n2nc3c(=O)n(CCCC(=O)NC(C)c4ccccc4)nc(C)c3c2C)cc1 (configuration not stated) | 4.59 µg/mL (≈ 10.4 µM)
CCN(c1ccccc1)S(=O)(=O)c1cc(C(=O)Nc2ccc(Br)cc2)ccc1F | < 1 µg/mL

Reference: PubChem BioAssay AID1645848
